According to patent US5459160A, “Iridoid derivatives and the use thereof as a drug” (Tsumura & Co., priority 1990, dated 1995):

Tests used:
[1] = tested on: hyperlipemia; assay: Anti-hyperlipemia test in rats on high fat food (Experimental Example 4); assay type: in vivo, Male Wistar rats; settings: peroral once a day, two weeks, control 100, Table 5
Description: Male Wistar rats 6.5 weeks old were allowed to freely intake a high fat food (0.5% cholesterol, 1.0% cholic acid, 20.0% casein, 50.5% cane sugar, 12.0% hardened coconut oil, 4.0% cellulose, 4.0% mineral mixture, 0.5% vitamine mixture, 7.5% white fish meal) in the course of two weeks so as to cause the outbreak of hyperlipemia. The dose of the drug was started simultaneously with the application of the high fat food, and was perorally given once a day through a stomach tube until the end of the experiment. The drugs were all suspended in a cane sugar fatty acid ester and were administered. The oily compounds were adjusted in advance to 100 mg/m.iota. by diethyl ether. A suitable amount was collected at the time of the dose and after diethyl ether was evaporated and removed, it was suspended in a cane sugar fatty acid ester (1% ryoto sugar ester) and was then given. After the final dose of the drug, the rats were fasted for about 18 hours, and the blood was sampled to measure the blood serum lipid. The blood serum lipid was measured by using a TBA-380 bio-chemical analyzer (a product of Toshiba Medical Co.,) unless a particular hindrance occurred.

[2] = tested on: bile secretion; assay: Cholagogic action, bile secretion (Experimental Example 5); assay type: in vivo, male Wistar rats; settings: intraduodenal
[3] = tested on: hyperlipemia; assay: Anti-hyperlipemia test in rats on high fat food (Experimental Example 1); assay type: in vivo, Male Wistar rats; settings: peroral once a day, two weeks, control 100, Table 1
[4] = Acute toxicity test; settings: mouse, in vivo, ip; male S.P.P. mice, abdominally administered; Table 11
Description: The acute toxicity test was carried out by abdominally administering each test drug to male S.P.P. mice and determining an LD50 value.

[5] = 0-1 hour after dose, control 84.1, Table 8
[6] = 1-2 hour after dose, control 72.5, Table 8
[7] = 2-3 hour after dose, control 63.8, Table 8
[8] = 3-4 hour after dose, control 56.7, Table 8
[9] = 4-5 hour after dose, control 51.2, Table 8

SMILES	Blood serum cholesterol (%) ([1]; 10 mg/kg)	Blood serum cholesterol (%) ([1]; 30 mg/kg)	Bile secretion amount, percentage of the hour before dose ([2]; 0-1 hour after dose, control 82.9, Table 6)	Bile secretion amount, percentage of the hour before dose [2, 5]	Bile secretion amount, percentage of the hour before dose [2, 6]	Bile secretion amount, percentage of the hour before dose ([2]; 1-2 hour after dose, control 74.1, Table 6)	Bile secretion amount, percentage of the hour before dose [2, 7]	Bile secretion amount, percentage of the hour before dose ([2]; 2-3 hour after dose, control 66.1, Table 6)	Bile secretion amount, percentage of the hour before dose [2, 8]	Bile secretion amount, percentage of the hour before dose ([2]; 3-4 hour after dose, control 59.8, Table 6)	Bile secretion amount, percentage of the hour before dose [2, 9]	Bile secretion amount, percentage of the hour before dose ([2]; 4-5 hour after dose, control 53.3, Table 6)	Blood serum cholesterol (%) ([3]; 10 mg/kg)	Blood serum triglyceride (%) ([3]; 10 mg/kg)	Blood serum cholesterol (%) ([3]; 30 mg/kg)	Blood serum triglyceride (%) ([3]; 30 mg/kg)	LD50 [4]
COC(=O)C1=COC(O)[C@H]2[C@@H]1CC[C@@H]2C (stereo partly drawn) [Definite Example 4, methyl (4aS, 7S, 7aR)-1,4a, 5,6,7,7a-hexahydro-1-hydroxy-7-methylcyclopenta[c]pyran-4-carboxylate]	85.3%	75.0%	146.9%	150.8%	93.7%	97.8%	74.0%	85.4%	63.9%	77.2%	57.2%	71.8%	73.3%	86.0%	75.4%	91.0%	–
COC(=O)C1=COC(O)[C@@H]2C(C)=CC[C@H]12 (stereo partly drawn) [Definite Example 9, methyl (4aS, 7aS)-1,4a, 5,7a-tetrahydro-1-hydroxy-7-methylcyclopenta[c]pyran-4-carboxylate]	70.8%	62.8%	–	134.5%	90.9%	–	76.5%	–	66.7%	–	59.4%	–	93.6%	74.5%	59.3%	60.0%	407 mg/kg
